Read-outs that look alike come from different tables or passages of the source.
Key:
[1] = system: renovascular hypertensive rats; assay: Effect on reducing blood pressure of renovascular hypertensive rats by single oral administration of potassium salt of QR01019; assay type: in vivo, Wistar rats; conditions: 1.0 mg/kg, single oral administration, RHR
Method: Wistar rats (provided by Hubei Province Disease Prevention Control Center, Wuhan, Hubei), male, weighted of 180 to 200 g, are randomly classified into 5 groups, including negative control group (0.5% CMC-Na), positive control group (1.0 mg/kg of potassium salt of Azilsartan medoxomil as the positive drug) and three groups with the test compound, QR01019 potassium salt (1.0 mg/kg), 6-8 animals per group. The unilateral renal artery of the rates were ligated to form two-kidney, one-clip renovascular hypertensive rat (RHR) models. After the surgery, the blood pressure was measured for weekly, and the measurement continued for 4 weeks. The rats whose blood pressures were steadily elevated by 4 kPa were successfully modeled rats. Before measuring blood pressure, the rat tails were heated by using a cyclic water bath tail sleeve at 39° C. to expand tail vessel, and thereafter, a tail sleeve method (BP2010A noninvasive blood pressure meter, Beijing Jiandeer Technology Limited Corporation, No. 1, Shangdi 10th Street, Haidian District, Beijing) was used to measure the blood pressures and heart rates of the rats before the administrations and at 1, 3, 5, 7, and 10 hours after oral administration, and each of the time points was measured three times to take the mean value. Maximum Blood pressure reduction (%)=maximum blood pressure reduction value after the administration/blood pressure value before the administration*100%.

[2] = system: spontaneously hypertensive rats (SHR); assay: Effect on reducing blood pressure of spontaneously hypertensive rats (SHR) by multiple oral administrations; assay type: in vivo; conditions: for inhibition in vivo at 0.5 mg/kg / inhibition in vivo at 1 mg/kg / inhibition in vivo at 2 mg/kg: Rattus norvegicus; for inhibition in vivo at 0.5 mg/kg / inhibition in vivo at 1 mg/kg / inhibition in vivo at 2 mg/kg / blood pressure reduction effect compared with Azilsartan medoxomil: SHR; for reduction effects on the heart rate of SHR rats: during the whole administration; for reduction effects on the heart rate of SHR rats / blood pressure reduction effect compared with Azilsartan medoxomil: result in words
[3] = system: renovascular hypertensive rats; assay: Effect on reducing blood pressure of renovascular hypertensive rats by single oral administration; assay type: in vivo, Wistar rats; conditions: for change in vivo at 0.5 mg/kg / inhibition in vivo at 0.5 mg/kg / change in vivo at 1 mg/kg / inhibition in vivo at 1 mg/kg / change in vivo at 2 mg/kg / inhibition in vivo at 2 mg/kg: Rattus norvegicus, single oral administration; for change in vivo at 0.5 mg/kg / change in vivo at 1 mg/kg / change in vivo at 2 mg/kg: RHR, read-out: Variations on heart rate; for inhibition in vivo at 0.5 mg/kg / inhibition in vivo at 1 mg/kg / inhibition in vivo at 2 mg/kg: two-kidney one-clip RHR, measured 1-10 h, read-out: Maximum blood pressure reduction; for blood pressure reduction at 24 hours after the administration / blood pressure reduction effect compared with Azilsartan medoxomil / lasting time of the blood pressure reduction effect compared with Azilsartan medoxomil: renal artery-ligated rat; for blood pressure reduction at 24 hours after the administration: dose not stated; for blood pressure reduction effect compared with Azilsartan medoxomil / lasting time of the blood pressure reduction effect compared with Azilsartan medoxomil: result in words
normal rats = assay: Effect on blood pressure of normal rats by single oral administration; assay type: in vivo, Wistar rats; conditions: Rattus norvegicus, po, single, normal rats; for inhibition in vivo at 0.5 mg/kg / inhibition in vivo at 1 mg/kg / inhibition in vivo at 2 mg/kg: 8 h, read-out: blood pressure reduction at 8 h after the administration; for inhibition in vivo at 0.5 mg/kg / change in vivo at 0.5 mg/kg: 0.5 mg/kg p.o.; for inhibition in vivo at 1 mg/kg / change in vivo at 1 mg/kg: 1.0 mg/kg p.o.; for inhibition in vivo at 2 mg/kg / change in vivo at 2 mg/kg: 2.0 mg/kg p.o.; for change in vivo at 0.5 mg/kg / change in vivo at 1 mg/kg / change in vivo at 2 mg/kg: read-out: variations on heart rate
[4] = 0.5 mg/kg oral once per day, 1 hour after the administration, read-out: Maximum blood pressure reduction, 1st-day administration
[5] = 0.5 mg/kg oral once per day, 1 hour after the administration, read-out: Maximum blood pressure reduction, 7th-day administration
[6] = 0.5 mg/kg oral once per day, 1 hour after the administration, read-out: Maximum blood pressure reduction, 14th-day administration
[7] = 0.5 mg/kg oral, read-out: Heart Rate (effect on reducing heart rate)
[8] = 1.0 mg/kg oral once per day, 1 hour after the administration, read-out: Maximum blood pressure reduction, 1st-day administration
[9] = 1.0 mg/kg oral once per day, 1 hour after the administration, read-out: Maximum blood pressure reduction, 7th-day administration
[10] = 1.0 mg/kg oral once per day, 1 hour after the administration, read-out: Maximum blood pressure reduction, 14th-day administration
[11] = 1.0 mg/kg oral, read-out: Heart Rate (effect on reducing heart rate)
[12] = 2.0 mg/kg oral once per day, 1 hour after the administration, read-out: Maximum blood pressure reduction, 1st-day administration
[13] = 2.0 mg/kg oral once per day, 1 hour after the administration, read-out: Maximum blood pressure reduction, 7th-day administration
[14] = 2.0 mg/kg oral once per day, 1 hour after the administration, read-out: Maximum blood pressure reduction, 14th-day administration
[15] = 2.0 mg/kg oral, read-out: Heart Rate (effect on reducing heart rate)

Structure (SMILES) | inhibition in vivo at 0.5 mg/kg [2, 4] [%] | inhibition in vivo at 0.5 mg/kg [2, 5] [%] | inhibition in vivo at 0.5 mg/kg [2, 6] [%] | inhibition in vivo at 1 mg/kg [2, 8] [%] | inhibition in vivo at 1 mg/kg [2, 9] [%] | inhibition in vivo at 1 mg/kg [2, 10] [%] | inhibition in vivo at 2 mg/kg [2, 12] [%] | inhibition in vivo at 2 mg/kg [2, 13] [%] | inhibition in vivo at 2 mg/kg [2, 14] [%] | change in vivo at 0.5 mg/kg [3] [%] | inhibition in vivo at 0.5 mg/kg [3] [%] | change in vivo at 1 mg/kg [3] [%] | inhibition in vivo at 1 mg/kg [3] [%] | change in vivo at 2 mg/kg [3] [%] | inhibition in vivo at 2 mg/kg [3] [%] | blood pressure reduction effect compared with Azilsartan medoxomil [3] | inhibition in vivo at 0.5 mg/kg (normal rats) [%] | inhibition in vivo at 1 mg/kg (normal rats) [%] | inhibition in vivo at 2 mg/kg (normal rats) [%] | change in vivo at 0.5 mg/kg (normal rats) [%] | further results
CCOc1nc2cccc(C(=O)OCc3oc(=O)oc3C)c2n1Cc1ccc(-c2ccccc2-c2noc(=O)[n-]2)cc1.[K+] [Positive control, potassium salt of Azilsartan medoxomil, reference compound] |  |  |  |  |  |  |  |  |  |  |  |  |  |  |  |  |  |  |  |  | Maximum blood pressure reduction [1]: 34 ± 3.6%; Variations on heart rate [1]: −14 ± 7%
CCOc1nc2cccc(C(=O)OCOC(=O)OCc3no[n+]([O-])c3C)c2n1Cc1ccc(-c2ccccc2-c2noc(=O)[nH]2)cc1 [QR01020] | 19 ± 6.8 | 18 ± 6.9 | 21 ± 4.6 | 30 ± 5.5 | 32 ± 8.3 | 35 ± 6.2 | 36 ± 5.3 | 42 ± 7.5 | 43 ± 7 | -15 ± 3 | 25 ± 4.3 | -28 ± 6 | 34 ± 6.8 | -25 ± 8 | 48 ± 2.6 | obviously superior to that of the Azilsartan medoxomil positive drug | 2.8 ± 5.3 | 3.9 ± 4.3 | 5.6 ± 3.2 | -1 ± 4 | inhibition in vivo at 0.5 mg/kg [2, 7]: 16 ± 4%; inhibition in vivo at 1 mg/kg [2, 11]: 25 ± 3%; inhibition in vivo at 2 mg/kg [2, 15]: 18 ± 5%; reduction effects on the heart rate of SHR rats [2]: significant reduction effects on the heart rate; blood pressure reduction at 24 hours after the administration [3]: 15%; lasting time of the blood pressure reduction effect compared with Azilsartan medoxomil [3]: close to that of Azilsartan medoxomil; change in vivo at 1 mg/kg (normal rats): -7 ± 3%; change in vivo at 2 mg/kg (normal rats): 3%
CCOc1nc2cccc(C(=O)OC(C)OC(=O)OCc3no[n+]([O-])c3C)c2n1Cc1ccc(-c2ccccc2-c2noc(=O)[nH]2)cc1 (centres unmarked) [QR01021] | 23 ± 6.4 | 24 ± 4.1 | 25 ± 5 | 42 ± 7.7 | 40 ± 3.8 | 44 ± 5.1 | 44 ± 6 | 44 ± 8.7 | 46 ± 5.9 | -6 ± 5 | 15 ± 2.1 | -3 ± 6 | 28 ± 4.5 | -12 ± 5 | 32 ± 5.2 | close to that of Azilsartan medoxomil | 2.7 ± 3.2 | 3.9 ± 3.8 | 2.8 ± 3.1 | -4 ± 3 | blood pressure reduction effect compared with Azilsartan medoxomil [2]: obviously superior to that of the Azilsartan medoxomil positive drug; change in vivo at 1 mg/kg (normal rats): -2 ± 5%; change in vivo at 2 mg/kg (normal rats): -1 ± 3%
CCOc1nc2cccc(C(=O)OCc3no[n+]([O-])c3C)c2n1Cc1ccc(-c2ccccc2-c2noc(=O)[nH]2)cc1 [QR01023] | 25 ± 8.2 | 24 ± 7.1 | 25 ± 6.8 | 39 ± 6 | 38 ± 7 | 42 ± 5.3 | 45 ± 7.3 | 48 ± 9.5 | 40 ± 8.2 | -8 ± 5 | 18 ± 2.3 | -16 ± 7 | 32 ± 8.1 | -23 ± 6 | 42 ± 4.6 | obviously superior to that of the Azilsartan medoxomil positive drug | 5.3 ± 1.4 | 3.6 ± 6.1 | 4.3 ± 2.1 | -3 ± 2 | inhibition in vivo at 0.5 mg/kg [2, 7]: 20 ± 3%; inhibition in vivo at 1 mg/kg [2, 11]: 14 ± 4%; inhibition in vivo at 2 mg/kg [2, 15]: 23 ± 5%; blood pressure reduction effect compared with Azilsartan medoxomil [2]: obviously superior to that of the Azilsartan medoxomil positive drug; reduction effects on the heart rate of SHR rats [2]: significant reduction effects on the heart rate; blood pressure reduction at 24 hours after the administration [3]: 18%; lasting time of the blood pressure reduction effect compared with Azilsartan medoxomil [3]: close to that of Azilsartan medoxomil; change in vivo at 1 mg/kg (normal rats): 6%; change in vivo at 2 mg/kg (normal rats): -3 ± 5%
CCOc1nc2cccc(C(=O)OCc3no[n+]([O-])c3CO[N+](=O)[O-])c2n1Cc1ccc(-c2ccccc2-c2noc(=O)[nH]2)cc1 [QR01034] | 25 ± 8.1 | 28 ± 7.4 | 26 ± 5.1 | 39 ± 7.5 | 39 ± 6.8 | 42 ± 5.9 | 44 ± 8.6 | 45 ± 7 | 46 ± 7.3 | -12 ± 8 | 23 ± 1.9 | -15 ± 7 | 36 ± 4.8 | -21 ± 7 | 45 ± 6 | obviously superior to that of the Azilsartan medoxomil positive drug | 3.4 ± 2.6 | 5.1 ± 3.6 | 3.4 ± 5 | -2 ± 5 | inhibition in vivo at 0.5 mg/kg [2, 7]: 19 ± 2%; inhibition in vivo at 1 mg/kg [2, 11]: 15 ± 4%; inhibition in vivo at 2 mg/kg [2, 15]: 21 ± 3%; blood pressure reduction effect compared with Azilsartan medoxomil [2]: obviously superior to that of the Azilsartan medoxomil positive drug; reduction effects on the heart rate of SHR rats [2]: significant reduction effects on the heart rate; blood pressure reduction at 24 hours after the administration [3]: 25%; lasting time of the blood pressure reduction effect compared with Azilsartan medoxomil [3]: close to that of Azilsartan medoxomil; change in vivo at 1 mg/kg (normal rats): 5%; change in vivo at 2 mg/kg (normal rats): -2 ± 5%
CCOc1nc2cccc(C(=O)OCc3no[n+]([O-])c3C#N)c2n1Cc1ccc(-c2ccccc2-c2noc(=O)[nH]2)cc1 [QR01036] | 20 ± 5.3 | 24 ± 8.6 | 24 ± 5.9 | 35 ± 7.8 | 35 ± 4.6 | 40 ± 7.8 | 46 ± 9.2 | 45 ± 8.3 | 48 ± 7.2 | -12 ± 9 | 19 ± 3.5 | -18 ± 7 | 38 ± 4.2 | -25 ± 7 | 46 ± 5 | obviously superior to that of the Azilsartan medoxomil positive drug | 2.8 ± 2.1 | 5.2 ± 3.5 | 6.3 ± 2 | -1 ± 6 | inhibition in vivo at 0.5 mg/kg [2, 7]: 14 ± 4%; inhibition in vivo at 1 mg/kg [2, 11]: 25 ± 2%; inhibition in vivo at 2 mg/kg [2, 15]: 21 ± 3%; blood pressure reduction effect compared with Azilsartan medoxomil [2]: obviously superior to that of the Azilsartan medoxomil positive drug; reduction effects on the heart rate of SHR rats [2]: significant reduction effects on the heart rate; blood pressure reduction at 24 hours after the administration [3]: 24%; lasting time of the blood pressure reduction effect compared with Azilsartan medoxomil [3]: close to that of Azilsartan medoxomil; change in vivo at 1 mg/kg (normal rats): -8 ± 2%; change in vivo at 2 mg/kg (normal rats): -5 ± 5%
